Structures can show the parent of a compound that is named as a salt. Where two headings read alike, the source gives them in different places.
Columns and labels:
human NTCP [1] = molecular target: T1, human NTCP (Homo sapiens, UniProt Q14973); experiment: Screening taurocholate uptake assay (96-well, [14C]taurocholate, 10 µM drug)
T1 sequence (Q14973 1-349): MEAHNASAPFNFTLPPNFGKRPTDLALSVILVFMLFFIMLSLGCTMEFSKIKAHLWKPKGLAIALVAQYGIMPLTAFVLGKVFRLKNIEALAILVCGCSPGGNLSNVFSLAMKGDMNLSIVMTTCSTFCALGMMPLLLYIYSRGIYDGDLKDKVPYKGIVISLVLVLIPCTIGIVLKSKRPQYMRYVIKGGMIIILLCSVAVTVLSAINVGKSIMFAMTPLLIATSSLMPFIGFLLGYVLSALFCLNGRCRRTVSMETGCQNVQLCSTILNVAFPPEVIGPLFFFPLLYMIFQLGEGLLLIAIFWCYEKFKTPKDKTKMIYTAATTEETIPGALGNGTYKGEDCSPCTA

human NTCP [2] = molecular target: T1, human NTCP; experiment: Screening fluorescent competitive Myrcludex B-FITC binding assay (96-well, 10 µM drug)
[3] = Prestwick library screen, 10 µM drug, B-score of taurocholate uptake
[4] = combined ranking from functional and binding assay B-scores
[5] = Prestwick library screen, 10 µM drug, B-score of Myrcludex B-FITC binding
[6] = combined ranking from functional and binding screening assays
[7] = screen, 10 µM drug, taurocholate uptake
[8] = screen, 10 µM drug, Myrcludex B-FITC binding
[9] = Prestwick library screen, taurocholate uptake, 10 µM drug
[10] = ranking score beside the functional and binding assay B-scores of the screen
[11] = Prestwick library screen, Myrcludex B-FITC binding, 10 µM drug

SMILES | Ranking score (human NTCP [1]; [6]) | B-score functional assay (human NTCP [1]; [7]) | B-score binding assay (human NTCP [2]; [8]) | B-score functional assay (human NTCP [1]; [9]) | Ranking score (human NTCP [1]; [10]) | B-score binding assay (human NTCP [2]; [11]) | other results
CC(C(=O)O)c1ccc(N2Cc3ccccc3C2=O)cc1 (centres unmarked) [Indoprofen] | – | – | – | – | – | – | B-score functional assay (human NTCP [1]; [3]): 0.788; Ranking score (human NTCP [1]; [4]): 897.998; B-score binding assay (human NTCP [2]; [5]): 0.209
CS(=O)(=O)Nc1ccc([N+](=O)[O-])cc1Oc1ccccc1 [Nimesulide] | 428.869 | -1.398 | 0.652 | – | – | – | –
CCN(CC)CCNC(=O)c1cc(Br)c(N)cc1OC [Bromopride] | – | – | – | – | – | – | B-score functional assay (human NTCP [1]; [3]): 0.033; Ranking score (human NTCP [1]; [4]): 880.053; B-score binding assay (human NTCP [2]; [5]): 1.459
CCN1CCC[C@H]1CNC(=O)c1c(O)c(Cl)cc(Cl)c1OC [Raclopride] | – | – | – | – | – | – | B-score functional assay (human NTCP [1]; [3]): 0.507; Ranking score (human NTCP [1]; [4]): 891.19; B-score binding assay (human NTCP [2]; [5]): 0.374
C#C[C@]1(O)CC[C@H]2[C@@H]3CCC4=Cc5oncc5C[C@]4(C)[C@H]3CC[C@@]21C [Danazol] | 407.041 | -0.499 | -0.305 | – | – | – | –
CC(=O)Nc1nnc(S(N)(=O)=O)s1 [Acetazolamide] | – | – | – | 0.532 | 696.956 | -0.137 | –
COc1ccc2cc([C@@H](C)C(=O)[O-])ccc2c1.[Na+] [(R) -Naproxen sodium salt] | – | – | – | – | – | – | B-score functional assay (human NTCP [1]): -0.341; Ranking score (human NTCP [1]): 667.638; B-score binding assay (human NTCP [2]): 0.921
CC[N+](C)(C)Cc1ccccc1Br [Bretylium tosylate] | 436.134 | -1.625 | 1.504 | – | – | – | –
C=C(C)[C@@H]1[C@H]2OC(=O)[C@@H]1[C@]1(O)C[C@H]3O[C@]34C(=O)O[C@H]2[C@]14C [Picrotoxinin] | – | – | – | 0.075 | 754.999 | 0.17 | –
CN(C)CC/C=C1\c2ccccc2CSc2ccccc21 [Dosulepin hydrochloride] | 296.985 | -2.363 | 0.311 | – | – | – | –
CCC(=O)O[C@H]1CC[C@H]2[C@@H]3CCC4=CC(=O)CC[C@]4(C)[C@H]3CC[C@]12C [Testosterone propionate] | – | – | – | – | – | – | B-score functional assay (human NTCP [1]): -0.451; Ranking score (human NTCP [1]): 567.732; B-score binding assay (human NTCP [2]): 0.252
CCN(CC)C(C)C(=O)c1ccccc1 (centres unmarked) [Amfepramone hydrochloride] | – | – | – | – | – | – | B-score functional assay (human NTCP [1]; [3]): 0.339; Ranking score (human NTCP [1]; [4]): 1034.63; B-score binding assay (human NTCP [2]; [5]): 2.906
CC(CNC1CCCCC1)OC(=O)c1ccccc1 (centres unmarked) [Hexylcaine hydrochloride] | 435.325 | 0.196 | -1.021 | – | – | – | –
Nc1nc(F)nc2c1ncn2[C@@H]1O[C@H](CO)[C@@H](O)[C@@H]1O [Fludarabine] | – | – | – | 1.199 | 822.35 | -0.02 | –
COc1cc(OC)c(C(=O)CCCN2CCCC2)c(OC)c1.Cl [Buflomedil hydrochloride] | – | – | – | 2.687 | 823.499 | -0.086 | –
C[C@]12CC[C@H]3[C@@H](CCC4=CC(=O)CC[C@@H]43)[C@@H]1CC[C@@H]2O [Nandrolone] | – | – | – | – | – | – | B-score functional assay (human NTCP [1]): 0.05; Ranking score (human NTCP [1]): 852.366; B-score binding assay (human NTCP [2]): 0.982
O=C(O)CCC(=O)c1ccc(-c2ccccc2)cc1 [Fenbufen] | 326.986 | -1.216 | -0.209 | – | – | – | –
CCN(CC)CC(=O)Nc1c(C)cccc1C [Lidocaine hydrochloride] | – | – | – | 0.516 | 815.009 | 0.07 | –
c1ccc(CC2=NCCN2)cc1 [Tolazoline hydrochloride] | – | – | – | – | – | – | B-score functional assay (human NTCP [1]; [3]): 4.096; Ranking score (human NTCP [1]; [4]): 929.251; B-score binding assay (human NTCP [2]; [5]): 0.03
COc1cc(NS(=O)(=O)c2ccc(N)cc2)nc(OC)n1 [Sulfadimethoxine] | – | – | – | 0.762 | 733.169 | -0.117 | –
C[N+]1(C)CCC(OC(=O)C(O)(c2ccccc2)C2CCCC2)C1 (centres unmarked) [Glycopyrrolate] | – | – | – | 0.403 | 820.625 | 0.143 | –
Cc1cn[nH]c1 [Fomepizole] | – | – | – | 0.928 | 795.707 | -0.028 | –
Nc1ccc(S(N)(=O)=O)cc1 [Sulfanilamide] | 381.13 | 1.042 | -1.742 | – | – | – | –

SMILES | Ranking score (human NTCP [1]; [6]) | B-score functional assay (human NTCP [1]; [7]) | B-score binding assay (human NTCP [2]; [8]) | B-score functional assay (human NTCP [1]; [9]) | Ranking score (human NTCP [1]; [10]) | B-score binding assay (human NTCP [2]; [11]) | other results
O=C(O)CCc1nc(-c2ccccc2)c(-c2ccccc2)o1 [Oxaprozin] | 341.015 | -0.957 | -0.29 | – | – | – | –
CC(C)NC[C@H](O)COc1ccc(CC(N)=O)cc1 [(S)-(-)-Atenolol] | 412.97 | -0.386 | -0.394 | – | – | – | –
CC(C)NCC(O)c1ccc2ccccc2c1.Cl (centres unmarked) [Pronethalol hydrochloride] | 409.31 | -0.999 | 0.008 | – | – | – | –
C=CCSCC1Nc2cc(Cl)c(S(N)(=O)=O)cc2S(=O)(=O)N1 (centres unmarked) [Althiazide] | – | – | – | – | – | – | B-score functional assay (human NTCP [1]; [3]): 0.092; Ranking score (human NTCP [1]; [4]): 866.45; B-score binding assay (human NTCP [2]; [5]): 0.861
CCN(CC)CCOC(=O)c1ccc(N)cc1 [Procaine hydrochloride] | 459.439 | -1.181 | 0.574 | – | – | – | –
Cc1c(N(C)CS(=O)(=O)[O-])c(=O)n(-c2ccccc2)n1C.[Na+] [Dipyrone] | 355.307 | -0.152 | -0.963 | – | – | – | –
CCN(CC)C(C)CN1c2ccccc2Sc2ccccc21 (centres unmarked) [Ethopropazine hydrochloride] | – | – | – | 0.753 | 687.443 | -0.236 | –
CO[C@H]1/C=C/O[C@@]2(C)Oc3c(C)c(O)c4c(c3C2=O)C2=NC3(CCN(CC(C)C)CC3)NC2=C(NC(=O)/C(C)=C\C=C\[C@H](C)[C@H](O)[C@@H](C)[C@@H](O)[C@@H](C)[C@H](OC(C)=O)[C@@H]1C)C4=O [Rifabutin] | – | – | – | 1.309 | 731.029 | -0.23 | –
C[C@H]1c2cccc(O)c2C(=O)C2=C(O)[C@]3(O)C(=O)C(C(N)=O)=C(O)[C@@H](N(C)C)[C@@H]3[C@@H](O)[C@@H]21 [Doxycycline hydrochloride] | 380.385 | -0.015 | -1.041 | – | – | – | –
C1CCC(C(CC2CCCCN2)C2CCCCC2)CC1 (centres unmarked) [Perhexiline maleate] | 400.32 | -0.011 | -0.916 | – | – | – | –
OC[C@H]1O[C@@H](Oc2ccc(O)cc2)[C@H](O)[C@@H](O)[C@@H]1O [Arbutin] | – | – | – | – | – | – | B-score functional assay (human NTCP [1]; [3]): 0.864; Ranking score (human NTCP [1]; [4]): 944.447; B-score binding assay (human NTCP [2]; [5]): 0.372
O=C(O)/C=C\C(=O)O.O=C(O)/C=C\C(=O)O.c1ccc2nc(N3CCNCC3)ccc2c1 [Quipazine dimaleate salt] | – | – | – | – | – | – | B-score functional assay (human NTCP [1]; [3]): 0.305; Ranking score (human NTCP [1]; [4]): 954.17; B-score binding assay (human NTCP [2]; [5]): 1.213
COc1ccc2c(c1)N(C[C@H](C)CN(C)C)c1ccccc1S2.O=C(O)/C=C\C(=O)O [Methotrimeprazine maleat salt] | – | – | – | 1.773 | 734.211 | -0.27 | –
N[C@@H]1CON=C1O [D-cycloserine] | – | – | – | -0.174 | 667.017 | 0.464 | –
C[C@H]1NC(=O)NC1=O [Methylhydantoin-5-(D)] | 290.241 | 0.047 | -1.862 | – | – | – | –
O=C([O-])[C@H]1/C(=C/CO)O[C@@H]2CC(=O)N21.[K+] [Clavulanate potassium salt] | – | – | – | – | – | – | B-score functional assay (human NTCP [1]; [3]): 0.008; Ranking score (human NTCP [1]; [4]): 886.007; B-score binding assay (human NTCP [2]; [5]): 2.079
C[C@H](CS)C(=O)N1CCC[C@H]1C(=O)O [Captopril] | – | – | – | – | 728.08 | 0.648 | –
CC1CC(OC(=O)c2ccccc2O)CC(C)(C)C1 (centres unmarked) [Homosalate] | – | – | – | 0.284 | 811.615 | 0.177 | –
CC(CCc1ccccc1)NC(C)C(O)c1ccc(O)cc1 (centres unmarked) [Nylidrin] | 363.793 | -0.121 | -0.92 | – | – | – | –
O=C(CCCN1CCC(n2c(O)nc3ccccc32)CC1)c1ccc(F)cc1 [Benperidol] | 422.659 | 0.351 | -1.201 | – | – | – | –
CC[C@H](C)C(=O)O[C@H]1CCC=C2C=C[C@H](C)[C@H](CC[C@@H]3C[C@@H](O)CC(=O)O3)[C@H]21 [Mevastatin] | 355.331 | -2.175 | 1.164 | – | – | – | –
Cc1nc2ccccn2c(=O)c1CCN1CCC(C(=O)c2ccc(F)cc2)CC1 [Pirenperone] | – | – | – | -0.092 | 829.554 | 3.342 | –
CCCCNc1ccc(C(=O)OCCN(C)C)cc1.Cl [Tetracaïne hydrochloride] | – | – | – | – | – | – | B-score functional assay (human NTCP [1]; [3]): 0.799; Ranking score (human NTCP [1]; [4]): 1118.05; B-score binding assay (human NTCP [2]; [5]): 2.591

Source: PMC5681660, “Reduced hepatitis B and D viral entry using clinically applied drugs as novel inhibitors of the bile acid transporter NTCP” (Scientific Reports, 2017)
